Measured values published in the supplement of paper PMC8967900.

Assays:
Experiment in all cases: selective drug sensitivity score (sDSS, relative to normal bone marrow) (sDSS (score)); higher = more potent and effective on the cell line relative to normal bone marrow cells
Details in all cases: 72 h
NALL-1 = system: NALL-1
CCRF-CEM = system: CCRF-CEM
LC4-1 = system: LC4-1
COG-LL-394h = system: COG-LL-394h
JURKAT = system: JURKAT
PEER = system: PEER
380 = system: 380
ALL-PO = system: ALL-PO
ALL-SIL = system: ALL-SIL
SEM cells = system: SEM cells
MHH-CALL-2 = system: MHH-CALL-2
NALM-16 = system: NALM-16
MN-60 = system: MN-60
NALM-6 = system: NALM-6
P30-OHKUBO = system: P30-OHKUBO
COG-LL-319h = system: COG-LL-319h
COG-LL-332h = system: COG-LL-332h
MOLT-16 = system: MOLT-16
MHH-CALL-4 = system: MHH-CALL-4
MHH-CALL-3 = system: MHH-CALL-3
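Note: ALL cell lines in 384-well plates, five doses spanning 10,000-fold, each plate scaled between vehicle and 100 µmol/L benzalkonium chloride controls, sDSS an adapted area-under-curve metric.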

Row | Structure (SMILES) | selective drug sensitivity score (NALL-1) | selective drug sensitivity score (CCRF-CEM) | selective drug sensitivity score (LC4-1) | selective drug sensitivity score (COG-LL-394h) | selective drug sensitivity score (JURKAT) | selective drug sensitivity score (PEER) | selective drug sensitivity score 380 | selective drug sensitivity score (ALL-PO) | selective drug sensitivity score (ALL-SIL) | selective drug sensitivity score (SEM cells) | selective drug sensitivity score (MHH-CALL-2) | selective drug sensitivity score (NALM-16) | selective drug sensitivity score (MN-60) | selective drug sensitivity score (NALM-6) | selective drug sensitivity score (P30-OHKUBO) | selective drug sensitivity score (COG-LL-319h) | selective drug sensitivity score (COG-LL-332h) | selective drug sensitivity score (MOLT-16) | selective drug sensitivity score (MHH-CALL-4) | selective drug sensitivity score (MHH-CALL-3)
1 | Cn1ncc(Cl)c1-c1cc(C(=O)N[C@H](CN)Cc2cccc(F)c2)sc1Cl [Afuresertib] (top concentration 1000 nM) | -2.34 | 5.36 | 0.86 | -0.94 | 3.86 | -1.34 | 2.46 | 4.26 | 3.66 | 0.36 | 7.36 | 1.46 | -0.54 | 4.66 | 5.56 | 7.76 | 2.86 | 10.4 | 5.06 | -1.94
2 | COc1ccc(S(=O)(=O)Nc2cccnc2Nc2ccc(O)cc2)cc1 [ABT-751] (top concentration 10000 nM) | 10.8 | 12.2 | 11.7 | 3.72 | 15.6 | 15.5 | 8.72 | 13.3 | 17.6 | 14.7 | 12.6 | 11.5 | 5.42 | 10.7 | 11.6 | 10.7 | 11.1 | 12.6 | 3.52 | 3.72
3 | Nc1ncnc2c1nc(Cl)n2[C@@H]1O[C@H](CO)[C@@H](O)[C@H]1O [8-chloro-adenosine] (top concentration 50000 nM) | -5.3 | 9.1 | 2.9 | 5.1 | 0.3 | 0.5 | -6.3 | 1.6 | -3.4 | 7.1 | 2.4 | -3.1 | -2.8 | 1.1 | 2.8 | 4.3 | 0.9 | 7.1 | 1.6 | -1.6
4 | C[C@]1(c2nc3c(C(N)=O)cccc3[nH]2)CCCN1 [Veliparib] (top concentration 10000 nM) | -4.18 | -4.18 | -4.18 | -4.18 | -3.28 | -4.18 | -2.78 | -1.78 | -4.18 | -4.18 | 5.02 | -4.18 | -3.38 | -2.48 | 4.42 | 1.02 | -1.48 | 0.32 | 6.72 | 0.42
5 | CC(C)NC(=O)COc1cccc(-c2nc(Nc3ccc4[nH]ncc4c3)c3ccccc3n2)c1 [KD025] (top concentration 5000 nM) | 2.54 | -0.66 | 6.44 | -1.36 | -3.06 | -1.56 | -5.36 | 5.24 | 1.24 | -2.96 | 3.94 | -1.16 | -5.36 | 1.14 | 1.84 | -1.06 | -0.56 | 0.64 | 1.04 | -5.36
6 | CCc1cnn2c(NCc3ccc[n+]([O-])c3)cc(N3CCCC[C@H]3CCO)nc12 [Dinaciclib] (top concentration 1000 nM) | -6.24 | -2.54 | -3.64 | -1.74 | -5.64 | -0.24 | -5.34 | -6.64 | -1.74 | -4.34 | -3.74 | -7.04 | -7.74 | -2.04 | 0.26 | 7.16 | -1.54 | -2.24 | -4.04 | 1.76
7 | CNCc1ccc(-c2[nH]c3cc(F)cc4c3c2CCNC4=O)cc1 [Rucaparib] (top concentration 10000 nM) | -0.58 | 1.32 | 0.32 | 0.92 | -0.58 | -0.08 | 11.5 | -0.58 | 0.22 | 2.72 | 9.02 | -0.58 | -0.58 | 0.62 | 0.42 | 6.32 | 1.52 | 2.72 | 5.92 | 13.8
8 | Cn1c(Nc2ccc(C(F)(F)F)cc2)nc2cc(Oc3ccnc(-c4ncc(C(F)(F)F)[nH]4)c3)ccc21 [NVP-RAF265] (top concentration 1000 nM) | 2.88 | 4.88 | 7.48 | 5.98 | 2.88 | 9.78 | 2.68 | 6.68 | 8.28 | 4.48 | 12 | 6.18 | -0.22 | -0.22 | 4.38 | 5.08 | 3.28 | 8.68 | 7.48 | 7.68
